Patent US20240262823A1, “PHARMACEUTICALLY ACCEPTABLE SALT OF PYRAZOLOHETEROARYL DERIVATIVE AND CRYSTAL FORM THEREOF” (JIANGSU HENGRUI PHARMACEUTICALS CO., LTD., priority 2021, published 2024)

Columns and labels:
[1] = Long-term/accelerated stability test of crystalline salt forms in sealed aluminum foil bags; assay type: physicochemical; settings: for Crystalline form: after storage
Procedure: The crystalline form α of mesylate, the crystalline form α of sulfate, the crystalline form I of maleate, the crystalline form a of p-toluenesulfonate and the crystalline form a of oxalate were stored in sealed aluminum foil bags and subjected to stability test under the conditions of −20° C., 4° C., 25° C./60% RH and 40° C./75% RH.

[2] = target: ATR enzyme (Homo sapiens (Human), UniProt Q13535); assay: Inhibitory effect on ATR enzyme (HTRF, phospho-p53); assay type: biochemical
Text: The following method was used to determine the inhibitory effect of the compounds disclosed herein on ATR enzyme. The experimental method was briefly described as follows:
• 1. ATR enzyme (Eurofins Pharma Discovery Services, 14-953-M) • 2. GST-tag P53 protein (Eurofins Pharma Discovery Services, 14-952-M) • 3. 384-well plate (Thermo Scientific, 267462) • 4. U-shaped bottom 96-well plate (Corning, 3795) • 5. MAb Anti-phospho p53-Eu cryptate (Cisbio, 61P08KAE) • 6. MAb Anti GST-d2 (Cisbio, 61GSTDLF) • 7. ATP solution (Promega, V916B) • 8. EDTA (Thermo Scientific, AM9260G) • 9. HEPES (Gibco, 15630-080) • 10. Microplate reader (BMG, PHERAsta)
1 nM ATR enzyme, 50 nM P53 protein, 7.435 μM ATP and small molecule compounds of different concentrations (serially 3-fold diluted from 1 μM to the 11th concentration) were mixed and incubated at room temperature for 2 h. A terminating buffer (12.5 mM HEPES, 250 mM EDTA) was added. The mixture was well mixed before 0.42 ng/well of mAb anti-phospho p53-Eu cryptate and 25 ng/well of mAb anti GST-d2 were added. The mixture was incubated overnight at room temperature, and the fluorescence signals at 620 nm and 665 nm were detected using a PHERAstar system. Data were processed using GraphPad software.

[3] = test system: LoVo cells; assay: Cell proliferation assay (intracellular ATP content, CellTiter-Glo); assay type: cell-based, human; settings: 3 days
Text: The following method evaluates the inhibitory effect of the compounds disclosed herein on the proliferation of LoVo cells via IC50 by measuring the intracellular ATP content. The experimental method was briefly described as follows:
• 1. LoVo, human colon cancer cells (Cobioer, Nanjing, CBP60032) • 2. Fetal bovine serum (GIBCO, 10091-148) • 3. F-12K Medium (Gibco, 21127030) • 4. CellTite-Glo reagent (Promega, G7573) • 5. 96-well cell culture plate (Corning, 3903) • 6. Pancreatin (Invitrogen, 25200-072) • 7. Microplate reader (BMG, PHERAsta) • 8. Cell counter (Countstar, Shanghai, IC1000)
LoVo cells were cultured in an F-12K culture medium containing 10% of FBS, and passaged twice or thrice a week in a passage ratio of 1:3 or 1:5. During passage, cells were digested by pancreatin, transferred to a centrifuge tube, and centrifuged for 3 min at 1200 rpm. The supernatant was discarded, and fresh culture medium was added to resuspend the cells. To a 96-well cell culture plate, 90 μL of the cell suspension was added at a density of 3.88×10^4 cells/mL. To peripheral wells of the 96-well plate, only 100 μL of complete medium was added. […]
The test samples were each diluted to 2 mM in DMSO and serially 3-fold diluted to the 10th concentration. […] The chemiluminescence signals were read by a PHERAstar system, and the data were processed by GraphPad software.

[4] = Pharmacokinetic study in rats after intragastric administration; assay type: in vivo; settings: both sexes, rat, plasma, po, SD rats, 2 mg/kg
Procedure: The drug concentrations in the plasma of the test animals (rats) at different time points after intragastric administration of the compound of Example 1 were determined by an LC/MS/MS method. The pharmacokinetic behavior in rats of the compound disclosed herein was studied and its pharmacokinetic profile was evaluated.
12 healthy adult SD rats (half male and half female; purchased from Vital River) were evenly divided into 3 groups of 4.
A certain amount of the compound was added to a mixed solvent containing 5% of DMSO, 5% of Tween 80 and 90% of normal saline to obtain a colorless and clear solution.
SD rats were intragastrically administered with the compound after fasting overnight, at a dose of 2 mg/kg and a volume of 10.0 mL/kg.
Rats were intragastrically administered with the compound of Examples 1. 0.2 mL of blood was collected from the orbit pre-dose and at 0.25, 0.5, 1.0, 2.0, 4.0, 6.0, 8.0, 11.0 and 24.0 h post-dose. The blood samples were transferred to EDTA-K2kk anticoagulation tubes, centrifuged at 4° C. and 11000 rpm for 5 min to separate out plasma. The plasma samples were stored at −20° C. The rats were fed 2 h after administration.
The plasma concentration of the compound in rats after intragastric administration was determined: 25 μL of rat plasma at each time point post-dose was mixed with 50 μL of internal standard and 175 μL of acetonitrile; the mixture was vortexed for 5 min and centrifuged for 10 min at 4000 rpm. 1 μL of supernatant was taken for LC/MS/MS analysis.

[5] = Initial, printed in the 25° C./60% RH row
[6] = long-term/accelerated stability test, overall

ATR enzyme, sequence (Q13535 whole entry): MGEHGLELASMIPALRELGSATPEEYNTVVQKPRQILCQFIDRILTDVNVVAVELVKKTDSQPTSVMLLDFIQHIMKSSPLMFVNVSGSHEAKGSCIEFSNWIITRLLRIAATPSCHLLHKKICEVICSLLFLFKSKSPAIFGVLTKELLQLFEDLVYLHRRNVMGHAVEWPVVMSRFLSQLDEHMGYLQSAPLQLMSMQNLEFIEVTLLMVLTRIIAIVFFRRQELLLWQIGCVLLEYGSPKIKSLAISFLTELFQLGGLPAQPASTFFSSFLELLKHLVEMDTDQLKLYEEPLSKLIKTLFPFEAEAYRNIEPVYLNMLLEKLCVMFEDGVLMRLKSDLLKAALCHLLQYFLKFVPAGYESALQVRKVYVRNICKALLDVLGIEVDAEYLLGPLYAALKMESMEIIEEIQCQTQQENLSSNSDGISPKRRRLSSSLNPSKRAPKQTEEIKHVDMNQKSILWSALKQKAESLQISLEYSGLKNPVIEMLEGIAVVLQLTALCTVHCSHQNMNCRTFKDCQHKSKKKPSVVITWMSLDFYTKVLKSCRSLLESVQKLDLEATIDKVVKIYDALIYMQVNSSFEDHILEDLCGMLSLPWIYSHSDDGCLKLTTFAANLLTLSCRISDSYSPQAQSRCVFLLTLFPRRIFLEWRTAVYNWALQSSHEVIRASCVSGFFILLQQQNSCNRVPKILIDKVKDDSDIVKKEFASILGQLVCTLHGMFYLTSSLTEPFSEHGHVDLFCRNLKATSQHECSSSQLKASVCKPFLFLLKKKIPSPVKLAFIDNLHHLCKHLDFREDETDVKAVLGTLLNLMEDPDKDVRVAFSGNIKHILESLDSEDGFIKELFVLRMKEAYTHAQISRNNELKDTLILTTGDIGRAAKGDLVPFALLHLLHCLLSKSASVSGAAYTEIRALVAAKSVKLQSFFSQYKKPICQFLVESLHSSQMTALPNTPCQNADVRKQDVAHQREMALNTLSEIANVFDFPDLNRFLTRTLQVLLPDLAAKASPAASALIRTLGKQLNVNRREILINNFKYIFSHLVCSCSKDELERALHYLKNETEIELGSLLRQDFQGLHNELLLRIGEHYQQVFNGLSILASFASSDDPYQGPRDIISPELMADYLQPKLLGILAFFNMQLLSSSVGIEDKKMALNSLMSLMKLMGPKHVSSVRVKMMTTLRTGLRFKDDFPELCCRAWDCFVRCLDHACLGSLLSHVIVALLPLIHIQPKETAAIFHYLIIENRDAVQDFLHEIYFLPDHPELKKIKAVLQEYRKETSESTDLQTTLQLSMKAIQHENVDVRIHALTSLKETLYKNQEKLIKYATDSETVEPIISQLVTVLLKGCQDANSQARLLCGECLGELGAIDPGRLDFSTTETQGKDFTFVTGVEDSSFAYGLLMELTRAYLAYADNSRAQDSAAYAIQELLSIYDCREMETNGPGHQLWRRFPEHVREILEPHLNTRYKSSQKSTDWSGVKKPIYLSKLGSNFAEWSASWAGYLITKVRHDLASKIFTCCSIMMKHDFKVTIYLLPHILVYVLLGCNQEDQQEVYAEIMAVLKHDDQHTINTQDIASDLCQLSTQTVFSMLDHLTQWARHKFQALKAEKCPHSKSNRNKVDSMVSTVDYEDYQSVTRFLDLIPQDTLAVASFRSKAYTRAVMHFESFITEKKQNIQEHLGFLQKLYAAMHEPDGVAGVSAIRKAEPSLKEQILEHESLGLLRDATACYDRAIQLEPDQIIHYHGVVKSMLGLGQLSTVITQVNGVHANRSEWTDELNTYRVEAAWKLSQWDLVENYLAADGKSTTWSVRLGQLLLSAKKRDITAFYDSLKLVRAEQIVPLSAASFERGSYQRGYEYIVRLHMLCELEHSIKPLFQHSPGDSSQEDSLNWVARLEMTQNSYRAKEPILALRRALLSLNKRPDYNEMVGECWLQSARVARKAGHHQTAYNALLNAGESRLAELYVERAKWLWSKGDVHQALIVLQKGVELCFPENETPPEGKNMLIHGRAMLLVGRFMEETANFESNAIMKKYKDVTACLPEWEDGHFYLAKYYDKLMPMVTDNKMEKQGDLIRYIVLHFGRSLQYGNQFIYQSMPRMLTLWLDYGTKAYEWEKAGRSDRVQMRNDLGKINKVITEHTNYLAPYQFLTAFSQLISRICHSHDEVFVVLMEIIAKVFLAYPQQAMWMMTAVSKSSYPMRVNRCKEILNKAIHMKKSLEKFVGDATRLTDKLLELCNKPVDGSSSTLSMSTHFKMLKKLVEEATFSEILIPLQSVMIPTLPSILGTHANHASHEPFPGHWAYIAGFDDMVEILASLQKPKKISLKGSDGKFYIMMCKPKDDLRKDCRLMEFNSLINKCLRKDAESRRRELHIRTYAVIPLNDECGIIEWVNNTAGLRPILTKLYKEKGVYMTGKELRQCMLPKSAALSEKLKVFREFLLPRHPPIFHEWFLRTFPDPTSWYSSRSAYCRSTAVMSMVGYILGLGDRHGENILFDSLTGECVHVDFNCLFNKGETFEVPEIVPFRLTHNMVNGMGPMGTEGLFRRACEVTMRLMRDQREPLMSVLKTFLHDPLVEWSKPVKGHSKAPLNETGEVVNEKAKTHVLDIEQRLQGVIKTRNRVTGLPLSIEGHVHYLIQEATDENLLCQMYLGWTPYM
ATR enzyme, sequence (Q8WXE1 whole entry partner): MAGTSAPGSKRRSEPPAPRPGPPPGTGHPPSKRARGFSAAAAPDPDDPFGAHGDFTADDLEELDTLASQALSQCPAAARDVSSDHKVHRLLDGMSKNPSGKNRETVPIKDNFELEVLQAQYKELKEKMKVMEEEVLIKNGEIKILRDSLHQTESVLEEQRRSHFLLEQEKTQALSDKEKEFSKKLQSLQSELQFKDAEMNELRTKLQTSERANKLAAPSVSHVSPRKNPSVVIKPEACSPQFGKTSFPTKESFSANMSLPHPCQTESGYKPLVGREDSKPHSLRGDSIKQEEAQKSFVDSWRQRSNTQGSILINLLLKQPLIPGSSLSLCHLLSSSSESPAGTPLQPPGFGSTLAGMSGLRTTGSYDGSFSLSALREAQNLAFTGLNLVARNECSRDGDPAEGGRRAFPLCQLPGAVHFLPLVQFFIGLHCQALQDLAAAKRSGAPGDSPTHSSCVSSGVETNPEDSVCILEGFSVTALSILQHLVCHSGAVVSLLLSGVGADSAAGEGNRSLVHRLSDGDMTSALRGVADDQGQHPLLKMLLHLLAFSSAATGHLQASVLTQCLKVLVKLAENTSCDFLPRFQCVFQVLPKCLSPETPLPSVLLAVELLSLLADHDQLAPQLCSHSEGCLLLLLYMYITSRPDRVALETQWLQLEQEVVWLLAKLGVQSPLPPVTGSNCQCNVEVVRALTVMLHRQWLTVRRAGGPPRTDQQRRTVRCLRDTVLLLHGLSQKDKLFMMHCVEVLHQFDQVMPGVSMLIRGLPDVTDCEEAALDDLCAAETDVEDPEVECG

Compound | Purity (%) ([1]; 4° C., 1 month) | Purity (%) ([1]; 4° C., 2 months) | Purity (%) ([1]; 4° C., 3 months) | Crystalline form ([1]; 4° C.) | Purity (%) ([1]; 25° C./60% RH, 1 month) | Purity (%) ([1]; 25° C./60% RH, 2 months) | Purity (%) ([1]; 25° C./60% RH, 3 months) | Crystalline form ([1]; 25° C./60% RH) | Chemical stability (in words) ([1]; 40° C. and 75% RH) | Purity (%) ([1]; 40° C./75% RH, 1 month) | Purity (%) ([1]; 40° C./75% RH, 2 months) | Purity (%) ([1]; 40° C./75% RH, 3 months) | Crystalline form ([1]; 40° C./75% RH) | Purity (%) ([1]; Initial) | Purity (%) [1, 5] | Purity (%) ([1]; −20° C., 1 month) | Purity (%) ([1]; −20° C., 2 months) | Purity (%) ([1]; −20° C., 3 months) | Crystalline form ([1]; −20° C.) | Chemical stability (in words) [1, 6] | other results
CC1COCCN1c1cc(C(C)(C)C#N)c2c(n1)c(-c1cc[nH]n1)nn2C.CS(=O)(=O)O (stereo not drawn) [Crystalline form α of mesylate] | 98.66% | 98.65% | 98.64% | Unchanged | 98.53% | 98.54% | 98.62% | Unchanged | slightly degraded | 97.00% | 97.56% | 95.66% | Unchanged | 98.72% | 98.49% | 98.73% | 98.69% | 98.61% | Unchanged |  | 
CC1COCCN1c1cc(C(C)(C)C#N)c2c(n1)c(-c1cc[nH]n1)nn2C.O=C(O)C=CC(=O)O (stereo not shown) [Crystalline form I of maleate] | 98.99% | 98.99% | 99.00% | Unchanged | 98.84% | 98.82% | 98.77% | Unchanged | slightly degraded | 98.59% | 98.26% | 98.30% | Unchanged | 98.97% |  | 99.04% | 99.00% | 99.00% | Unchanged |  | 
CC1COCCN1c1cc(C(C)(C)C#N)c2c(n1)c(-c1cc[nH]n1)nn2C.Cc1ccc(S(=O)(=O)O)cc1 (stereo not shown) [Crystalline form a of p-toluenesulfonate] | 98.13% | 98.19% | 98.17% | Unchanged | 98.41% | 98.07% | 98.18% | Unchanged |  | 97.31% | 96.90% | 95.57% | Unchanged | 98.69% |  | 98.46% | 98.46% | 98.66% | Unchanged | slightly poor stability | 
C[C@@H]1COCCN1c1cc(C(C)(C)C#N)c2c(n1)c(-c1cc[nH]n1)nn2C [Example 1, (R)-2-methyl-2-(1-methyl-5-(3-methylmorpholino)-3-(1H-pyrazol-3-yl)-1H-pyrazolo[4,3-b]pyridin-7-yl)propanenitrile] |  |  |  |  |  |  |  |  |  |  |  |  |  |  |  |  |  |  |  |  | IC50 ([2]; 1 nM ATR enzyme, 50 nM P53 protein, 7.435 μM ATP, 2 h, read-out: IC50 for ATR enzyme inhibition): 3 nM; Max Inhibition (%) ([2]; ATR enzyme): 100%; Max Inhibition (%) [3]: 93%; Vd/F ([4]; read-out: Apparent volume of distribution Vz/F): 2.06 ± 1.22 L/kg; AUC ([4]; read-out: Area under curve AUC): 3200 ± 2750 ng·h/mL; CL/F ([4]; read-out: Clearance CL/F): 17.7 ± 12.4 mL/min/kg; half-life ([4]; read-out: Half-life T1/2 (converted)): 2.62 ± 2.48 h; Cmax ([4]; read-out: Plasma concentration Cmax): 1110 ± 394 ng/mL; MRT ([4]; read-out: Residence time MRT): 3.08 ± 2.31 h

More lines, main results first:

Purity (%) ([1]; 4° C., 1 month) | Purity (%) ([1]; 4° C., 2 months) | Purity (%) ([1]; 4° C., 3 months) | Crystalline form ([1]; 4° C.) | Purity (%) ([1]; 25° C./60% RH, 1 month) | Purity (%) ([1]; 25° C./60% RH, 2 months) | Purity (%) ([1]; 25° C./60% RH, 3 months) | Crystalline form ([1]; 25° C./60% RH) | Chemical stability (in words) ([1]; 40° C. and 75% RH) | Purity (%) ([1]; 40° C./75% RH, 1 month) | Purity (%) ([1]; 40° C./75% RH, 2 months) | Purity (%) ([1]; 40° C./75% RH, 3 months) | Crystalline form ([1]; 40° C./75% RH) | Purity (%) ([1]; Initial) | Purity (%) [1, 5] | Purity (%) ([1]; −20° C., 1 month) | Purity (%) ([1]; −20° C., 2 months) | Purity (%) ([1]; −20° C., 3 months) | Crystalline form ([1]; −20° C.) | Chemical stability (in words) [1, 6] | Compound | other results
99.54% | 99.60% | 99.55% | Unchanged | 99.53% | 99.58% | 99.52% | Unchanged |  | 99.40% | 99.39% | 99.40% | Unchanged | 99.57% |  | 99.57% | 99.51% | 99.46% | Unchanged | relatively stable | CC1COCCN1c1cc(C(C)(C)C#N)c2c(n1)c(-c1cc[nH]n1)nn2C.CC1COCCN1c1cc(C(C)(C)C#N)c2c(n1)c(-c1cc[nH]n1)nn2C.O=C(O)C(=O)O (stereo not shown) [Crystalline form a of oxalate] | 
97.07% | 97.29% |  | Unchanged | 93.00% | 92.90% |  | Unchanged |  | 89.37% | 83.97% |  | Unchanged | 97.55% | 97.70% | 97.62% | 97.56% |  | Unchanged | slightly poor stability | CC1COCCN1c1cc(C(C)(C)C#N)c2c(n1)c(-c1cc[nH]n1)nn2C.O=S(=O)(O)O (stereo not drawn) [Crystalline form α of sulfate] | 
